From PMC9299836 (eLife, 2022)
Several values for one entry are separate records, joined by “and”; a condition that tells them apart may be missing. Identical values can stand only once.

Legend:
mGluR2 [1] = molecular target: mGluR2 (Mus musculus, UniProt Q14BI2, A548F); test: Live-cell FRET, azi-CRD (cysteine-rich domain) sensor in HEK293T cells; conditions: for azi-CRD normalized FRET response, Mean / azi-CRD normalized FRET response, individual cell: Glutamate + 10μM modulator (NAM); for azi-CRD normalized FRET response, Mean: maximal response normalized to 1mM glutamate; for azi-CRD normalized FRET response, individual cell: single-cell replicate
mGluR2 [2] = molecular target: T1, mGluR2 (Mus musculus, UniProt Q14BI2); test: Live-cell FRET, SNAP-m2 (VFT domain) inter-subunit sensor in HEK293T cells; conditions: for Mean normalized FRET response, SNAP-m2 NAM DRC: glutamate + 10μM modulator, maximal response normalized to 1mM glutamate;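 as to all read-outs here: apparent FRET efficiency from whole-membrane ROIs of single cells, corrected for donor bleed-through and background, ΔFRET as treatment minus pretreatment signal, recorded at room temperature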
mGluR2 [3] = molecular target: mGluR2 (Mus musculus, UniProt Q14BI2, INS715F); test: Live-cell FRET, azi-ECL2 (7TM domain, extracellular loop 2) sensor in HEK293T cells; conditions: for Mean normalized azi-ECL2 FRET response: glutamate + 10μM modulator, maximal response normalized to 1mM glutamate;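 as to all read-outs here: Cy3/Cy5 click-labeled sensor, whole-membrane ROIs per cell, apparent FRET after bleed-through correction, ΔFRET as treatment minus pre-treatment signal, at room temperature, at least three biological replicates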
mGluR2 [4] = molecular target: T1, mGluR2; test: Functional calcium imaging, SNAP-mGluR2 (no FLAG-tag) with chimeric G protein Gqo5 in HEK293T cells; format: cell-based; design: Full length mGluR2 construct with an amber codon (TAG) mutation of amino acid A548 (azi-CRD) or N-terminal SNAP-tag (SNAP-mGluR2); host or cells: HEK293T; conditions: for Intracellular Ca2+ Response (normalized to 1mM glutamate), Mean: Glutamate + 90nM Ro 64-5229
[5] = 10μM Ro 64-5229, ([1 mM glutamate + modulator] - [1 mM glutamate]) × 100

T1 sequence (Q14BI2 19-872): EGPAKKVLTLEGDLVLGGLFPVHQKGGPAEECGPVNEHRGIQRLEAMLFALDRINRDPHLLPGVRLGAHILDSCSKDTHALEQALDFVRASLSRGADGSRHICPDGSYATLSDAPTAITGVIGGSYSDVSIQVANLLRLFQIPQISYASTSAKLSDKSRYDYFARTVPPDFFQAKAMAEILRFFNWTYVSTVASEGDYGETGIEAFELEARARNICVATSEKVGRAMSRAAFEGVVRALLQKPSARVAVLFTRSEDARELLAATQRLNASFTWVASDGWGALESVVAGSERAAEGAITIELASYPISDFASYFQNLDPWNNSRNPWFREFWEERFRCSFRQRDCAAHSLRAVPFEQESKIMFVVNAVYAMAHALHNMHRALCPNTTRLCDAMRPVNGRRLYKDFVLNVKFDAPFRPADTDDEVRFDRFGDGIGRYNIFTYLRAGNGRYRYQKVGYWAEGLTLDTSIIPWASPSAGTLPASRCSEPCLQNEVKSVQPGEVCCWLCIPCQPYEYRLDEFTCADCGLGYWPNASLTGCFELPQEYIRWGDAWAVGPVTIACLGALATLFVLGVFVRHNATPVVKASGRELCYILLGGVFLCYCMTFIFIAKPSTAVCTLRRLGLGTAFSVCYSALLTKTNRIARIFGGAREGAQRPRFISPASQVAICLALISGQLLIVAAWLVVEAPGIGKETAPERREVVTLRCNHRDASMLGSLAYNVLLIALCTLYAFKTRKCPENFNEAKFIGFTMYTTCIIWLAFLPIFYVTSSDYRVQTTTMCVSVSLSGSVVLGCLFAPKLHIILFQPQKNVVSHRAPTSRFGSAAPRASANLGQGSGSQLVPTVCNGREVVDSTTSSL
Sequence of mGluR2 (Mus musculus, UniProt Q14BI2, A548F) (Q14BI2 19-872 A548F): as the sequence (Q14BI2 19-872) above, with A530F counted along it
Sequence of mGluR2 (Mus musculus, UniProt Q14BI2, INS715F) (Q14BI2 with tags, fused parts or gaps INS715F): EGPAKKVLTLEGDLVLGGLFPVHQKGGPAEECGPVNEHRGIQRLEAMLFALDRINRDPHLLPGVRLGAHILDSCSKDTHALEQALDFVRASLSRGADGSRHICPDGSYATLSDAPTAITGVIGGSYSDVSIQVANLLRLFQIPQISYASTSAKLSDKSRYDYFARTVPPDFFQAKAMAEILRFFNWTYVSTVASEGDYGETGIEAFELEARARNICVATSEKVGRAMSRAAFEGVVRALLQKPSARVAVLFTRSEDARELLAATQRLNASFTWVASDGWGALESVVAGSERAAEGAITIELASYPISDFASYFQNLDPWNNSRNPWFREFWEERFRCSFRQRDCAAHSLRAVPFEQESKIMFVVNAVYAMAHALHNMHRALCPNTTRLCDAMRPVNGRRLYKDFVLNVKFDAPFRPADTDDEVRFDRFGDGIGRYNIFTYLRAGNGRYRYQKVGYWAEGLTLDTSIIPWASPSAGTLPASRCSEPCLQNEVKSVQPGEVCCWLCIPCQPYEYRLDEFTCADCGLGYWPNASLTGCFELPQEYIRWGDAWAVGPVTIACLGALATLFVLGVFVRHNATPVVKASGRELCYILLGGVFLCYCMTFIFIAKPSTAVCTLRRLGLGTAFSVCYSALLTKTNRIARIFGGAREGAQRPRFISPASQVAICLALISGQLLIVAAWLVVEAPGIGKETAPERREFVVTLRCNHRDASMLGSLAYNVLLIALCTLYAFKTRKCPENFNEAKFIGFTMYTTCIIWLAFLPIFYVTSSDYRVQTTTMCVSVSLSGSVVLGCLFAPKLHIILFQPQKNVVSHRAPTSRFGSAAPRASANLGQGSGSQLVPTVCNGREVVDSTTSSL

azi-CRD - ΔEfficacy, Mean ΔEfficacy (mGluR2 [1]; [5]): -41.4006
azi-CRD normalized FRET response, Mean (mGluR2 [1]; log[Glutamate] (M) -3): 0.586
azi-CRD normalized FRET response, individual cell (mGluR2 [1]; log[Glutamate] (M) -3): 0.586
azi-CRD normalized FRET response, Mean (mGluR2 [1]; log[Glutamate] (M) -4.1549): 0.5093
azi-CRD normalized FRET response, Mean (mGluR2 [1]; log[Glutamate] (M) -4.52288): 0.3977
azi-CRD normalized FRET response, Mean (mGluR2 [1]; log[Glutamate] (M) -5): 0.2248
azi-CRD normalized FRET response, Mean (mGluR2 [1]; log[Glutamate] (M) -5.39794): 0.1255
azi-CRD normalized FRET response, Mean (mGluR2 [1]; log[Glutamate] (M) -5.82391): 0.06192
azi-CRD normalized FRET response, Mean (mGluR2 [1]; log[Glutamate] (M) -6.52288): 0.03074
azi-CRD normalized FRET response, Mean (mGluR2 [1]; log[Glutamate] (M) -7): 0
azi-CRD normalized FRET response, individual cell (mGluR2 [1]; log[Glutamate] (M) -7): 0
Hill slope of glutamate titration (mGluR2 [1]; azi-CRD sensor, + 10 μM modulator): 1.05
Mean max response (normalized max ΔFRET) (mGluR2 [1]; azi-CRD, 1 mM glutamate + 10 μM modulator, normalized to 1 mM glutamate): 0.59
Mean ΔPotency (mGluR2 [1]; azi-CRD, 10μM modulator, (([modulator + glutamate]EC50 – [glutamate] EC50)/[glutamate] EC50) × 100): 46.1673
SNAP-m2 - ΔEfficacy, Mean ΔEfficacy (mGluR2 [2]; [5]): -12.5077
Mean max response (normalized max ΔFRET) (mGluR2 [2]; SNAP-m2, 1 mM glutamate + 10 μM modulator, normalized to 1 mM glutamate): 0.87
Mean ΔPotency (mGluR2 [2]; SNAP-m2, 10μM modulator, (([modulator + glutamate]EC50 – [glutamate] EC50)/[glutamate] EC50) × 100): 64.9494
Mean ΔEfficacy (mGluR2 [2]; SNAP-m2, 10μM modulator, ([1 mM glutamate + modulator] - [1 mM glutamate]) × 100): -12.5077
Hill slope of glutamate titration (mGluR2 [2]; SNAP-m2 sensor, + 10 μM modulator): –1.52
Mean normalized FRET response, SNAP-m2 NAM DRC (mGluR2 [2]; log[Glutamate] (M) -3): -0.8749
Mean normalized FRET response, SNAP-m2 NAM DRC (mGluR2 [2]; log[Glutamate] (M) -4.1549): -0.7502
Mean normalized FRET response, SNAP-m2 NAM DRC (mGluR2 [2]; log[Glutamate] (M) -4.52288): -0.5932
Mean normalized FRET response, SNAP-m2 NAM DRC (mGluR2 [2]; log[Glutamate] (M) -5): -0.2293
Mean normalized FRET response, SNAP-m2 NAM DRC (mGluR2 [2]; log[Glutamate] (M) -5.39794): -0.07065
Mean normalized FRET response, SNAP-m2 NAM DRC (mGluR2 [2]; log[Glutamate] (M) -5.82391): -0.0217
Mean normalized FRET response, SNAP-m2 NAM DRC (mGluR2 [2]; log[Glutamate] (M) -6.52288): 0
Mean normalized FRET response, SNAP-m2 NAM DRC (mGluR2 [2]; log[Glutamate] (M) -7): 0
Mean normalized FRET response, SNAP-m2 NAM DRC (mGluR2 [2]; log[Glutamate] (M) -7.69897): 0
Mean normalized FRET response, SNAP-m2 NAM DRC (mGluR2 [2]; log[Glutamate] (M) -4.69897): -0.4605
azi-ECL2 - ΔEfficacy, Mean ΔEfficacy (mGluR2 [3]; [5]): -16.382
Mean ΔPotency (mGluR2 [3]; 10μM modulator, (([modulator + glutamate]EC50 – [glutamate] EC50)/[glutamate] EC50) × 100): 238.581
Mean max response (normalized max ΔFRET) (mGluR2 [3]; azi-ECL2, 1 mM glutamate + 10 μM modulator, normalized to 1 mM glutamate): 0.84
Hill slope of glutamate titration (mGluR2 [3]; azi-ECL2 sensor, + 10 μM modulator): 1.07
Mean normalized azi-ECL2 FRET response (mGluR2 [3]; log[Glutamate] (M) -3): 0.8362
Mean normalized azi-ECL2 FRET response (mGluR2 [3]; log[Glutamate] (M) -4.1549): 0.6516
Mean normalized azi-ECL2 FRET response (mGluR2 [3]; log[Glutamate] (M) -4.52288): 0.5392
Mean normalized azi-ECL2 FRET response (mGluR2 [3]; log[Glutamate] (M) -5): 0.3248
Mean normalized azi-ECL2 FRET response (mGluR2 [3]; log[Glutamate] (M) -5.39794): 0.1335
Mean normalized azi-ECL2 FRET response (mGluR2 [3]; log[Glutamate] (M) -5.82391): 0.04706
Mean normalized azi-ECL2 FRET response (mGluR2 [3]; log[Glutamate] (M) -6.52288): 0
Mean normalized azi-ECL2 FRET response (mGluR2 [3]; log[Glutamate] (M) -7): 0
Mean normalized azi-ECL2 FRET response (mGluR2 [3]; log[Glutamate] (M) -7.69897): 0
Mean normalized azi-ECL2 FRET response (mGluR2 [3]; log[Glutamate] (M) -4.69897): 0.5381
Effect on receptor activation (calcium imaging) in the presence of glutamate (mGluR2 [4]; 10 μM NAM): block receptor activation
Intracellular Ca2+ Response, % 1mM Glutamate (mGluR2 [4]; 1mM Glutamate + 90nM Ro 64-5229, individual experiments): 79.692% and 78.096% and 66.28%
Mean ΔEfficacy of glutamate (mGluR2 [4]; Ca2+ response, 1 mM glutamate + 90 nM modulator, ([1 mM glutamate + modulator] - [1 mM glutamate]) × 100): -25.3109
ΔEfficacy of glutamate, individual experiments (mGluR2 [4]; Ca2+ response, 1 mM glutamate + 90 nM modulator, single replicate): -21.9043 and -33.7198 and -20.3084
Mean ΔPotency of glutamate (mGluR2 [4]; Ca2+ response, glutamate + 90 nM modulator, (([modulator + glutamate]EC50 – [glutamate]EC50)/[glutamate]EC50) × 100): 160.286
ΔPotency of glutamate, individual experiments (mGluR2 [4]; Ca2+ response, glutamate + 90 nM modulator, single replicate): 46.8661 and 141.491 and 292.502
Intracellular Ca2+ Response (normalized to 1mM glutamate), Mean (mGluR2 [4]; log[Glutamate] (M) -3): 0.7469
Intracellular Ca2+ Response (normalized to 1mM glutamate), Mean (mGluR2 [4]; log[Glutamate] (M) -3.60206): 0.7222
Intracellular Ca2+ Response (normalized to 1mM glutamate), Mean (mGluR2 [4]; log[Glutamate] (M) -4.1549): 0.5737
Intracellular Ca2+ Response (normalized to 1mM glutamate), Mean (mGluR2 [4]; log[Glutamate] (M) -4.52288): 0.2233
Intracellular Ca2+ Response (normalized to 1mM glutamate), Mean (mGluR2 [4]; log[Glutamate] (M) -5): 0.1471
Intracellular Ca2+ Response (normalized to 1mM glutamate), Mean (mGluR2 [4]; log[Glutamate] (M) -5.39794): 0
Intracellular Ca2+ Response (normalized to 1mM glutamate), Mean (mGluR2 [4]; log[Glutamate] (M) -5.82391): 0
Intracellular Ca2+ Response (normalized to 1mM glutamate), Mean (mGluR2 [4]; log[Glutamate] (M) -6.52288): 0
Intracellular Ca2+ Response (normalized to 1mM glutamate), Mean (mGluR2 [4]; log[Glutamate] (M) -7): 0
Structure (SMILES): Clc1cccc(Cl)c1/C(=C/n1cncn1)OC1CCCCCC1 [Ro 64–5229]
azi-CRD - ΔEfficacy, individual cell responses (mGluR2 [1]; 10μM Ro 64-5229, single cells): -28.0702 and -27.0053 and -21.7759 and -17.8571 and -54.2848 and -56.1085 and -49.8998 and -39.7625 and -52.6646 and -45.8685 and -32.6644 and -42.4305 and -51.9931 and -35.5526 and -41.2702 and -37.27 and -50.0412 and -60.6915
azi-CRD normalized FRET response, individual cell (mGluR2 [1]; log[Glutamate] (M) -4.1549): 0.5346 and 0.4622 and 0.5203 and 0.5084 and 0.5826 and 0.5517 and 0.4974 and 0.5062 and 0.5143 and 0.4926 and 0.4963 and 0.4643 and 0.4905
azi-CRD normalized FRET response, individual cell (mGluR2 [1]; log[Glutamate] (M) -4.52288): 0.3335 and 0.3611 and 0.3991 and 0.4165 and 0.5072 and 0.4352 and 0.378 and 0.3755 and 0.3785 and 0.4157 and 0.3821 and 0.3693 and 0.4189
azi-CRD normalized FRET response, individual cell (mGluR2 [1]; log[Glutamate] (M) -5): 0.1496 and 0.3033 and 0.2652 and 0.2455 and 0.317 and 0.2125 and 0.1682 and 0.183 and 0.1871 and 0.1831 and 0.172 and 0.2951 and 0.2409
azi-CRD normalized FRET response, individual cell (mGluR2 [1]; log[Glutamate] (M) -5.39794): 0.1184 and 0.1898 and 0.1288 and 0.1204 and 0.1285 and 0.1251 and 0.1085 and 0.1183 and 0.1305 and 0.09889 and 0.1192 and 0.1155 and 0.1302
azi-CRD normalized FRET response, individual cell (mGluR2 [1]; log[Glutamate] (M) -5.82391): 0.04987 and 0.1052 and 0.0682 and 0.05385 and 0.04969 and 0.05654 and 0.05788 and 0.05365 and 0.05774 and 0.05311 and 0.05405 and 0.04746 and 0.09767
azi-CRD normalized FRET response, individual cell (mGluR2 [1]; log[Glutamate] (M) -6.52288): 0.03117 and 0.03301 and 0.02778 and 0.02217 and 0.02741 and 0.0634 and 0.03617 and 0.02751 and 0.02353 and 0.01178 and 0.01113 and 0.04333 and 0.04124
Live-cell FRET max response normalized to 1mM glutamate (mGluR2 [1]; azi-CRD sensor, Glutamate + 10μM Ro 64-5229, individual values (N=18)): 0.4572 and 0.4389 and 0.501 and 0.6024 and 0.4733 and 0.5413 and 0.6734 and 0.5757 and 0.4801 and 0.6445 and 0.5873 and 0.6273 and 0.4996 and 0.3931 and 0.7193 and 0.7299 and 0.7822 and 0.8214
ΔPotency, individual cell (mGluR2 [1]; azi-CRD, 10μM modulator, calculated from individual cell responses): 111.788 and 54.4953 and 84.4604 and 80.2661 and 72.5435 and 46.8592 and 26.2598 and 27.1246 and 2.91 and 18.4766 and 20.2062 and -17.7582
ΔPotency, individual cell responses (mGluR2 [3]; 10μM modulator, single cells, (([modulator + glutamate]EC50 – [glutamate] EC50)/[glutamate] EC50) × 100): 105.749 and 188.087 and 277.044 and 382.546 and 239.476
ΔEfficacy, individual cell responses (mGluR2 [3]; 10μM modulator, single cells, ([1 mM glutamate + modulator] - [1 mM glutamate]) × 100): -3.67 and -2.778 and -15 and -26.6667 and -29.3756 and -15.3219 and -1.127 and -37.1174
Live-cell FRET max response normalized to 1mM glutamate (mGluR2 [3]; azi-ECL2 sensor, Glutamate + 10μM Ro 64-5229, individual values (N=8)): 0.7062 and 0.8468 and 0.9887 and 0.6288 and 0.9633 and 0.9722 and 0.85 and 0.7333
